Data as given in patent publication US20160361251A1, “NOVEL PROCESS FOR PRODUCING TRANSMUCOSAL PHARMACEUTICAL FORMULATIONS AND FORMULATIONS THUS OBTAINED” (Clemann Group, priority 2013, published 2016).

B1: rBetv1: recombinant allergen rBetv1, a characteristic allergen of trees of the order of fagales and in particular birch (protein, UniProt P15494 2-160, looked up)
Major pollen allergen Bet v …: GVFNYETETTSVIPAARLFKAFILDGDNLFPKVAPQAISSVENIEGNGGPGTIKKISFPEGFPFKYVKDRVDEVDHTNFKYNYSVIEGGPIGDTLEKISNEIKIVATPDGGSILKISNKYHTKGDHEVKAEQVKASKEMGETLLRAVESYLLAHSDAYN

Assay: Dissolution of active ingredient in ternary mixture stearate 1500/TPGS/water
Type: physicochemical
Procedure: For this purpose, 10 g of ternary mixture are prepared from 4.50 g of stearate 1500, 500 mg of TPGS and 5 g of water at 50° C. This mixture is maintained at 50° C. with stirring for 5 minutes.
In an Erlenmeyer provided with magnetic stirring, 1.80 g of stearate 1500 and 200 mg of TPGS are mixed at 50° C. with stirring for 3 minutes in order to form a homogenous and intimate mixture of both polymers. The mixture is then slowly cooled to 40° C.
1 ml of an aqueous solution of rBetv1 is then prepared at a concentration of 3 mg/ml.
1 ml of this solution is then introduced into the previous mixture of molten polymer maintained at 40° C.

| Molecule | dissolution in ternary mixture (stearate 1500/TPGS/water 4.50 g/500 mg/5 g at 50° C., 4.54 g powder added) | dissolution in molten polymer mixture (1 ml of 3 mg/ml aqueous solution into 1.80 g stearate 1500 + 200 mg TPGS at 40° C.) |
| --- | --- | --- |
| CNCC(O)c1ccc(O)c(O)c1.O=C(O)C(O)C(O)C(=O)O (centres unmarked) [adrenaline bitartrate] | total and rapid |  |
| B1 |  | complete and rapid |
